Tests used:
5-HT1A receptor [1] = molecular target: T1, 5-HT1A receptor (Rattus norvegicus, UniProt P19327); experiment: radioligand displacement of [3H]-8-OH-DPAT, single dose […]
T1 construct: gene Htr1a; rat cerebral cortex membranes
T1 sequence (P19327 1-422): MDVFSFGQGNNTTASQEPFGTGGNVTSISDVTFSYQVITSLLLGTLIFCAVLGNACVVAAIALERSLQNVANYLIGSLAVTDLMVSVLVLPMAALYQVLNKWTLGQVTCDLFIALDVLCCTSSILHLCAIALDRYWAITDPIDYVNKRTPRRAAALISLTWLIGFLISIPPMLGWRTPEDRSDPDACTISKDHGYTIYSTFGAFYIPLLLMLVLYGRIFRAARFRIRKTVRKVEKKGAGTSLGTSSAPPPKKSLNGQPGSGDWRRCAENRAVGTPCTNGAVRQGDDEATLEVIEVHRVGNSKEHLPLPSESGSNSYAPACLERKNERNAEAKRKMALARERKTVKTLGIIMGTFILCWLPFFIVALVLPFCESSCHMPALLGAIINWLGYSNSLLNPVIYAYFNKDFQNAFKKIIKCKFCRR

5-HT1A receptor [2] = molecular target: T1, 5-HT1A receptor; experiment: radioligand displacement of [3H]-8-OH-DPAT, dose-response; assay type: binding

| Ki (5-HT1A receptor [2]) [µM] | SMILES | inhibition at 1 µM (5-HT1A receptor [1]) [%] |
| --- | --- | --- |
|  | COc1ccccc1N1CCN(CCC(=O)c2cc3ccccc3s2)CC1 [7d, 3-[4-(2-Methoxyphenyl)piperazin-1-yl]-1-(benzo[b]thiophen-2-yl)-1-propanone] | 52 ± 7 |
| 2.3 | O=C(CCN1CCN(c2ccccn2)CC1)c1cc2ccccc2s1 [7e, 1-(benzo[b]thiophen-2-yl)-3-(4-(pyridin-2-yl)piperazin-1-yl)propan-1-one] |  |
